# Assay results as given in patent US12390435B2, “Electrophiles and electrophile pro-drugs as RAD51 inhibitors” (University of Pittsburgh—Of the Commonwealth System of …, priority 2018, dated 2025).
# Tests used:
# [1] = tested on: MDA-MB-231 orthotopic tumor; assay: Orthotopic MDA-MB-231 tumor model, 15 mg/kg gavage; format: in vivo, mice
# Experimental: Animals used for this study were approved by and conducted according to the guidelines of the University of Pittsburgh IACUC. MDA-MB-231 cells (0.5×106) were injected into the mammary fat pad (left 4th gland) of 6-wk-old female nude mice in a volume of 20 μL sterile saline. When tumors reached an average volume of 100 mm^3, mice were treated with OA+vehicle (n=8), OA-NO2+vehicle (n=7), OA+talazoparib (0.3 mg/kg) (n=10) or OA-NO2 (15 mg/kg)+talazoparib (n=11). Tumor volume was measured by caliper over time in P-values: *<0.01, ***<0.001, ****<0.0001. The surgical procedure has been previously described.
# Whether NO2-OA could also enhance TNBC DNA damage in vivo was also assessed. […] (FIG. 1B). […] This response became statistically significant after Grubbs outlier detection and elimination of OA treated mouse #2. The orthotopic tumor in OA mouse #2 was the largest tumor in the study, with necrosis potentially causing enhanced γH2AX levels.
# TNBC cells = assay: Cellular H2O2 production; format: cell-based; settings: short term and extended (6 hr) treatment
# MDA-MB-231 cells = assay: CellTiter-Glo relative growth (luminescent ATP); format: cell-based
# Experimental: HEK 293T, MDA-MB-231, MDA-MB-468, Hs578T and BT-549 cells (American Type Culture Collection) were cultured at 37° C. with 5% CO2 in Dulbecco's modified Eagle's medium containing (DMEM) (Gibco) supplemented with 5% FBS (HyClone), 100 units/ml penicillin, […] streptomycin (Gibco), non-essential amino acids (Gibco) and 2 mM 1-glutamine (Gibco). Doxorubicin (Selleckchem), cisplatin (Sigma) or olaparib (Selleckchem) were dissolved in DMSO or DMF (cisplatin). […] Pure NO2-OA was diluted in DMSO and added to cells after solvation in assay media. Relative cell numbers were compared by measuring the luminescent signal generated by ATP using the CellTiter-Glo (Promega) assay. Cells were plated in a 96-well plate at 5,000 (MDA-MB-231) or 6,600 (BT549 or Hs578T) cells per well.
# Data represent the mean±SEM from 3 independent experiments unless otherwise noted. A p value<0.05 was considered statistically significant. Non-linear curves were generated in GraphPad Prism 7.0 (GraphPad Software, La Jolla, CA, USA) for statistical analysis. EC50 values and standard error were calculated from three independent experiments utilizing a non-linear dose response variable slope model. Significance was tested by one-way ANOVA for multiple groups with Tukey posttest or by t-test when groups were less than three. RAD51 foci number was analyzed with ImageJ. Nuclear boundaries were individually identified in more than 50 cells per treatment group in three independent experiments.
# The growth of BT-549 cells was not affected. […] MDA-MB-231 cells were plated in a 96 well plate and treated with talazoparib (0.01-75 μM) plus OA-NO2 or NDA-NO2 (0.2-12 μM) daily for 3 days. Growth inhibition (relative cell numbers) of MDA-MB-231 cells was determined by luminescent detection of ATP (CellTiter-Glo) (FIG. 1K).
# RAD51 = assay: Biotinylated nitro fatty acid affinity capture of RAD51; format: binding; settings: 293T cells expressing WT or mutant RAD51
# Experimental: HEK 293T were transiently transfected with Fugene 6 (Promega) and 5 μg RAD51 expressing vectors (wild-type, C312S, or C319S). […] Cells were prepared as above. […] Detection of RAD51 was accomplished by immunoblot with RAD51 antibody (1:2000) with actin antibody (1:3000) probed as loading control.
# RAD51-ABL complex = biological target: T1, RAD51-ABL complex (Homo sapiens, UniProt Q06609); assay: FLAG-RAD51/ABL immunoprecipitation in 293T cells; format: cell-based; settings: 0 to 5 μM, 1 h
# T1 construct: expressed in transfected cells; host or cells: HEK 293T
# T1 sequence (Q06609 whole entry, one chain of several): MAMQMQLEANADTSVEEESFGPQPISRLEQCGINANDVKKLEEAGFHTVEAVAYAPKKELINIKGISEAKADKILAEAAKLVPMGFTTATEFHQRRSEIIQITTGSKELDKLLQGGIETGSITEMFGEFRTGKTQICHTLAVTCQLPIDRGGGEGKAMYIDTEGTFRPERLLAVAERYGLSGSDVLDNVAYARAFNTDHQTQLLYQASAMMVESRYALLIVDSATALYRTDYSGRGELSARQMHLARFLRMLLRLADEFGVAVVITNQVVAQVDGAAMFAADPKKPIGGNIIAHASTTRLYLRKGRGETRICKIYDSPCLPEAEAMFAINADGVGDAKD
# Experimental: Cell lysates and immunoprecipitation were prepared. For immunoprecipitation analysis, one million HEK 293T cells were transiently transfected with Fugene 6 (Promega) and 2 μg pQCXIP (EV) or FLAG-RAD51 pQCXIP plasmids and precipitated with Anti-FLAG M2 Affinity Gel (Sigma).
# Cys319 is located in the RAD51 C-terminus within one of the two ABL-SH3 binding domains (amino acids 283-286 and 318-321). […] ABL regulates RAD51 activity via sequential phosphorylation of RAD51 Tyr54 and then Tyr315.
# [2] = tested on: homologous recombination (DR-GFP, U2OS cells); assay: DR-GFP HR reporter assay in U2OS cells; format: cell-based
# Experimental: Measurements of NHEJ, HR, Alt-EJ and SSA assays were performed as previously described. HR activity was measured by counting GFP-positive cells by flow cytometry at the MWRI flow cytometry core using a BD LSRII (BD Biosciences). RAD51 overexpressing cells were generated by stable transfection of pLVX RAD51 IRES Neo and selection with geneticin (Invitrogen).
# U2OS cells were prepared as above, but 5 h following compound treatment, cells were transferred into the Incucyte Zoom (Essen) live-cell imaging automated fluorescence microscope at 37° C. with 5% CO2. Cell confluence and green object count per mm2 were determined using Incucyte Zoom software. Green object count per field was normalized to cell confluency to correct for NO2—OA-induced effects on cell proliferation.
# NO2-OA-dependent effects on HR DNA repair were further investigated by utilizing a DRGFP reporter assay. This analysis quantifies intracellular recombination of an integrated cDNA cassette of two tandem non-fluorescent GFP constructs following introduction of an I-SceI cleavage to the system by measuring the fluorescent GFP protein that is produced following successful recombination. […] A novel strategy was used to measure the kinetics of changes in HR in live cells by using automated fluorescence microscopy to track the emergence of GFP positive cells over time in monolayers, as opposed to making static measurements of detached cells using flow cytometry. […] This was indicated by an absence of changes in the number of GFP positive cells following I-SceI cleavage after 48 h by flow cytometric analysis or over 68 h by live-cell fluorescence microscopy (FIGS. 2C, 2D).
structure (smiles),measurement,setting,value
"CCCCCCCCC(=CCCCCCCCC(=O)O)[N+](=O)[O-] [NO2-OA, 10-nitro-octadec-9-enoic acid]",tumor γH2AX level by immunoblot,"[1]; 15 mg/kg by gavage for 4 wk, versus OA",higher levels of γH2AX
same,tumor growth rate,"[1]; 15 mg/kg by gavage for 4 wk, versus OA treated controls",significantly decreased tumor growth rates
same,tumor reduction / tumor volume in combination with talazoparib,[1]; NO2-OA 15 mg/kg + talazoparib 0.3 mg/kg versus either alone,significant greater tumor reduction compared to talazoparib or NO2-OA alone
same,cellular rates of H2O2 production,TNBC cells,did not significantly impact cellular rates of H2O2 production
same,Growth inhibition,"MDA-MB-231 cells; 12 or 6.0 μM plus 0.01-75 μM talazoparib, daily for 3 days",~100%
same,"EC50 for growth inhibition, compared between compounds","MDA-MB-231 cells; ATP Celltiter Glo proliferation assay, n=3",higher EC50
same,EC50,"MDA-MB-231 cells; Homo sapiens, MDA-MB-231, 72 h, read-out: EC50 for growth inhibition",3.66 ± 0.14 µM
same,increased growth inhibition of cisplatin,MDA-MB-231 cells; cisplatin 72 h plus daily 2 μM NO2-OA,6 fold
same,enhanced growth inhibition of doxorubicin,MDA-MB-231 cells; doxorubicin 72 h plus daily 2 μM NO2-OA,7 fold
same,enhanced growth inhibition of olaparib,MDA-MB-231 cells; olaparib 72 h plus daily 2 μM NO2-OA,5 fold
same,"Combination index (CI), Chou-Talalay","MDA-MB-231 cells; with talazoparib (0.01-75 μM), 0.2-12 μM, daily 3 days, CI<1 is synergistic",< 1
same,"RAD51 cysteine targeted (Cys312Ser, Cys319Ser mutants)",RAD51,preferential reaction of NO2-OA with Cys319
same,ABL bound to RAD51,RAD51-ABL complex,decreased the amount of ABL bound to RAD51
same,RAD51 Tyr315 phosphorylation,RAD51-ABL complex,inhibited
same,HR activity in RAD51 overexpressing versus control reporter cells,[2]; 5 μM NO2-OA,significantly increased
same,decrease in number of GFP-positive cells (HR),"[2]; daily 5 μM, over 68 h, live-cell microscopy",2 fold
same,decrease in number of GFP positive cells (HR),"[2]; daily NO2-OA, 48 h, flow cytometry, versus OA or vehicle",2 fold
